# Reference: PubChem BioAssay AID328 (DTP/NCI, 2004)
# Values joined by “and” are separate entries in the source; they are usually repeats but may differ in a detail not shown here. Equal values may be shown once. Toxic doses and inconclusive results are not listed.
# Tested on: BDF1 mice, P388 leukemia ip, median survival T/C
# Test: NCI In Vivo Anticancer Drug Screen. Data for tumor model P388 Leukemia (intraperitoneal) in B6D2F1 (BDF1) mice
# Conditions: endpoint: median survival time, higher = longer survival
# Procedure, shortened: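 Each value expresses how treatment altered survival: treated-mouse outcome over vehicle-mouse outcome, both groups bearing the transplanted tumour.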
# [1] = dose: 50.0 mg/kg/injection, schedule: Q04DX003 (ip), vehicle: saline with Tween-80
# [2] = dose: 100.0 mg/kg/injection, schedule: Q04DX003 (ip), vehicle: saline with Tween-80
# [3] = dose: 200.0 mg/kg/injection, schedule: Q04DX003 (ip), vehicle: saline with Tween-80
# [4] = dose: 300.0 mg/kg/injection, schedule: Q04DX003 (ip), vehicle: saline with Tween-80
# [5] = dose: 25.0 mg/kg/injection, schedule: Q01DX009 (ip), vehicle: saline
# [6] = dose: 50.0 mg/kg/injection, schedule: Q01DX009 (ip), vehicle: saline
# [7] = dose: 100.0 mg/kg/injection, schedule: Q01DX009 (ip), vehicle: saline with Tween-80
# [8] = dose: 50.0 mg/kg/injection, schedule: Q01DX009 (ip), vehicle: saline with Tween-80
# [9] = dose: 50.0 mg/kg/injection, schedule: Q01DX009 (ip), vehicle: Klucel (hydroxypropylcellulose) (HPC)
structure (smiles),measurement,setting,value
CC(C)=C(CO)CCC(C)C,T/C,[1],109 % of control
same,T/C,[2],122 % of control
same,T/C,[3],118 % of control
CN1CCC(OC(=O)c2ccc3c(c2)OCO3)CC1,T/C,"dose: 12.5 mg/kg/injection, schedule: Q04DX003 (ip), vehicle: saline with Tween-80",100 % of control
same,T/C,"dose: 25.0 mg/kg/injection, schedule: Q04DX003 (ip), vehicle: saline with Tween-80",117 % of control
same,T/C,[1],91 % of control
Nc1nc(N)c2cc(CNc3ccc(C(=O)NC(CC(=O)O)CC(=O)O)cc3)cnc2n1,T/C,[2],101 % of control
same,T/C,[3],113 % of control
same,T/C,[4],86 % of control
Oc1c(Br)ccc2c(O)c(Br)ccc12,T/C,"dose: 132.0 mg/kg/injection, schedule: Q04DX003 (ip), vehicle: saline with Tween-80",109 % of control
same,T/C,[3],114 % of control
same,T/C,[4],95 % of control
COc1cc2ccc3c(c2cc1OC)N(C)C(OC)c1cc2c(cc1-3)OCO2 (stereo unspecified),T/C,"dose: 20.0 mg/kg/injection, schedule: Q01DX009 (ip), vehicle: water",104 % of control
same,T/C,"dose: 240.0 mg/kg/injection, schedule: Q01DX009 (ip), vehicle: water",95 % of control
Cc1cc(Br)c2ccccc2c1N(CC(=O)O)S(=O)(=O)c1ccccc1,T/C,"dose: 100.0 mg/kg/injection, schedule: Q01DX001 (ip), vehicle: saline with Tween-80",100 % of control
same,T/C,"dose: 200.0 mg/kg/injection, schedule: Q01DX001 (ip), vehicle: saline with Tween-80",109 % of control
same,T/C,"dose: 400.0 mg/kg/injection, schedule: Q01DX001 (ip), vehicle: saline with Tween-80",109 % of control
Nc1[nH]c(=O)nc2nc[nH]c12,T/C,[5],112 % of control
same,T/C,[6],98 % of control
same,T/C,"dose: 100.0 mg/kg/injection, schedule: Q01DX009 (ip), vehicle: saline",119 % of control
CCC(=O)O[C@H]1CC(=O)N(C)c2cc(cc(OC)c2Cl)C/C(C)=C/C=C[C@@H](OC)[C@@]2(O)C[C@H](OC(=O)N2)[C@@H](C)[C@H]2O[C@@]12C,T/C,"dose: 0.8 micrograms/kg/injection, schedule: Q01DX009 (ip), vehicle: saline + alcohol",170 % of control
same,T/C,"dose: 0.9 micrograms/kg/injection, schedule: Q01DX009 (ip), vehicle: saline + alcohol",110 % of control
same,T/C,"dose: 1.5 micrograms/kg/injection, schedule: Q01DX009 (ip), vehicle: saline + alcohol",173 % of control
same,T/C,"dose: 3.1 micrograms/kg/injection, schedule: Q01DX009 (ip), vehicle: saline + alcohol",168 % of control
same,T/C,"dose: 6.2 micrograms/kg/injection, schedule: Q01DX009 (ip), vehicle: saline + alcohol",170 % of control
same,T/C,"dose: 12.5 micrograms/kg/injection, schedule: Q01DX009 (ip), vehicle: saline + alcohol",163 % of control and 183 % of control
same,T/C,"dose: 25.0 micrograms/kg/injection, schedule: Q01DX009 (ip), vehicle: saline + alcohol",258 % of control and 153 % of control
same,T/C,"dose: 50.0 micrograms/kg/injection, schedule: Q01DX009 (ip), vehicle: saline + alcohol",198 % of control and 223 % of control
CC=C(/C(=C/C)c1ccc(O)cc1)c1ccc(O)cc1,T/C,"dose: 66.0 mg/kg/injection, schedule: Q01DX009 (ip), vehicle: saline with Tween-80",100 % of control
same,T/C,[7],109 % of control
same,T/C,"dose: 150.0 mg/kg/injection, schedule: Q01DX009 (ip), vehicle: saline with Tween-80",118 % of control
O=C(O)CCCNSc1ccccc1[N+](=O)[O-],T/C,[7],124 % of control
CC(C)CCNc1ncnc2c1cnn2C,T/C,"dose: 25.0 mg/kg/injection, schedule: Q01DX009 (ip), vehicle: saline with Tween-80",100 % of control
same,T/C,[8],100 % of control
same,T/C,[7],109 % of control
CS(=O)(=O)CC(O)(c1ccc(Cl)cc1)c1ccccn1 (stereo unspecified),T/C,[8],91 % of control
same,T/C,[7],91 % of control
same,T/C,"dose: 200.0 mg/kg/injection, schedule: Q01DX009 (ip), vehicle: saline with Tween-80",97 % of control
COc1cc(C)c(NC(=O)Oc2ccccc2)c(C)c1,T/C,[2],104 % of control
same,T/C,[3],104 % of control
same,T/C,"dose: 400.0 mg/kg/injection, schedule: Q04DX003 (ip), vehicle: saline with Tween-80",104 % of control
C#CCCCOC(=O)Nc1ccccc1,T/C,[9],90 % of control
same,T/C,"dose: 100.0 mg/kg/injection, schedule: Q01DX009 (ip), vehicle: Klucel (hydroxypropylcellulose) (HPC)",90 % of control
CC(=O)CC1c2c(ccc3c2OCO3)-c2ccc3cc4c(cc3c2N1C)OCO4 (stereo unspecified),T/C,"dose: 5.0 mg/kg/injection, schedule: Q01DX009 (ip), vehicle: Klucel (hydroxypropylcellulose) (HPC)",95 % of control
same,T/C,"dose: 10.0 mg/kg/injection, schedule: Q01DX009 (ip), vehicle: Klucel (hydroxypropylcellulose) (HPC)",110 % of control
same,T/C,"dose: 13.0 mg/kg/injection, schedule: Q01DX010 (ip), vehicle: saline",100 % of control
same,T/C,"dose: 20.0 mg/kg/injection, schedule: Q01DX009 (ip), vehicle: Klucel (hydroxypropylcellulose) (HPC)",120 % of control
same,T/C,"dose: 20.0 mg/kg/injection, schedule: Q01DX010 (ip), vehicle: saline",105 % of control
same,T/C,"dose: 30.0 mg/kg/injection, schedule: Q01DX010 (ip), vehicle: saline",110 % of control
same,T/C,"dose: 40.0 mg/kg/injection, schedule: Q01DX009 (ip), vehicle: Klucel (hydroxypropylcellulose) (HPC)",115 % of control
CC(C)(C)[O][Pb]([c]1ccccc1)([c]1ccccc1)[c]1ccccc1,T/C,"dose: 0.39 mg/kg/injection, schedule: Q01DX009 (ip), vehicle: saline",100 % of control
same,T/C,"dose: 0.85 mg/kg/injection, schedule: Q04DX003 (ip), vehicle: saline",105 % of control
same,T/C,"dose: 1.02 mg/kg/injection, schedule: Q01DX009 (ip), vehicle: saline",104 % of control and 115 % of control
same,T/C,"dose: 1.7 mg/kg/injection, schedule: Q04DX003 (ip), vehicle: saline",110 % of control
same,T/C,"dose: 2.34 mg/kg/injection, schedule: Q01DX009 (ip), vehicle: saline",113 % of control and 120 % of control
same,T/C,"dose: 3.4 mg/kg/injection, schedule: Q01DX009 (ip), vehicle: saline",90 % of control
same,T/C,"dose: 3.4 mg/kg/injection, schedule: Q04DX003 (ip), vehicle: saline",90 % of control
same,T/C,"dose: 5.0 mg/kg/injection, schedule: Q04DX003 (ip), vehicle: saline",104 % of control
same,T/C,"dose: 5.75 mg/kg/injection, schedule: Q01DX001 (ip), vehicle: Klucel (hydroxypropylcellulose) (HPC)",88 % of control
same,T/C,"dose: 7.7 mg/kg/injection, schedule: Q04DX003 (ip), vehicle: saline",86 % of control
Cc1nc(NN)c(C(N)=O)nc1C,T/C,"dose: 12.5 mg/kg/injection, schedule: Q01DX009 (ip), vehicle: saline",97 % of control
same,T/C,[5],89 % of control
same,T/C,"dose: 25.0 mg/kg/injection, schedule: Q04DX003 (ip), vehicle: saline",106 % of control
same,T/C,[6],93 % of control and 120 % of control
same,T/C,"dose: 50.0 mg/kg/injection, schedule: Q04DX003 (ip), vehicle: saline",102 % of control
C[C@H]1[C@H](C)CC[C@]2(CO)CC[C@]3(C)C(=CC[C@@H]4[C@@]5(C)CC[C@@H](O)C(C)(C)[C@@H]5CC[C@]43C)[C@H]12,T/C,"dose: 50.0 mg/kg/injection, schedule: Q01DX010 (ip), vehicle: acetone",120 % of control
same,T/C,"dose: 400.0 mg/kg/injection, schedule: Q01DX010 (ip), vehicle: acetone",110 % of control
C=CC1CCCCC1C=C (stereo unspecified),T/C,[5],107 % of control
same,T/C,[6],88 % of control
CC(=O)Oc1cc(OCCCc2ccc(F)cc2)cc2ccc3ccccc3c12,T/C,"dose: 25.0 mg/kg/injection, schedule: Q04DX002 (ip), vehicle: saline with Tween-80",99 % of control
same,T/C,"dose: 50.0 mg/kg/injection, schedule: Q04DX002 (ip), vehicle: saline with Tween-80",98 % of control
same,T/C,"dose: 100.0 mg/kg/injection, schedule: Q04DX002 (ip), vehicle: saline with Tween-80",90 % of control
O=C1NC(=O)C2C3C(C(O)(c4ccccc4)c4ccccn4)=CC(/C3=C(\c3ccccc3)c3ccccn3)C12 (stereo unspecified),T/C,"dose: 12.5 mg/kg/injection, schedule: Q01DX009 (ip), vehicle: Klucel (hydroxypropylcellulose) (HPC)",100 % of control
same,T/C,"dose: 25.0 mg/kg/injection, schedule: Q01DX009 (ip), vehicle: Klucel (hydroxypropylcellulose) (HPC)",113 % of control
same,T/C,[9],86 % of control
same,T/C,"dose: 100.0 mg/kg/injection, schedule: Q04DX003 (ip), vehicle: Klucel (hydroxypropylcellulose) (HPC)",109 % of control
same,T/C,"dose: 200.0 mg/kg/injection, schedule: Q04DX003 (ip), vehicle: Klucel (hydroxypropylcellulose) (HPC)",100 % of control
same,T/C,"dose: 400.0 mg/kg/injection, schedule: Q04DX003 (ip), vehicle: Klucel (hydroxypropylcellulose) (HPC)",100 % of control
COC(=O)C1c2cc3c(cc2C(OC2OC(C)C(OC)C(C)(OC)C2OC)CC1(C)O)C(=O)c1c(O)cc2c(c1C3=O)OC1OC2(C)C(O)C([N+](C)(C)[O-])C1O (stereo unspecified),T/C,"dose: 3.13 mg/kg/injection, schedule: Q01DX010 (ip), vehicle: saline",150 % of control
same,T/C,"dose: 6.25 mg/kg/injection, schedule: Q01DX010 (ip), vehicle: saline",165 % of control
same,T/C,"dose: 12.5 mg/kg/injection, schedule: Q01DX010 (ip), vehicle: saline",95 % of control
